The values below are quoted from earlier work in patent US9408867B2, “Antifungal compositions for the treatment of skin and nails” (Veloce BioPharma, LLC, priority 2011, dated 2016).

Like-named read-outs stand apart in the source and are kept apart here.

For data set [1] the following is noted: human skin in vitro.
The conditions of data set [2]: 50% solution of DMSO in water.

On to `COC1=CC(=O)C[C@@H](C)[C@]12Oc1c(Cl)c(OC)cc(OC)c1C2=O` [griseofulvin], for which the ratio of penetration is given as 60 in data set [1] (dissolved in DMSO); 3 in data set [1] (dissolved in alcohol); 1 in data set [1] (dissolved in benzene); 40 in data set [1] (dissolved in dimethylacetamide); 7 in data set [1] (dissolved in dimethylformamide).

In the case of `C[C@]12CCC(=O)C=C1CC[C@@H]1[C@@H]2[C@@H](O)C[C@@]2(C)[C@H]1CC[C@]2(O)C(=O)CO` [hydrocortisone], in data set [2], the rate of penetration result is “markedly enhanced”.
